Reference: PMC8863579, “Effects of pharmacological inhibition of the sodium‐dependent phosphate cotransporter 2b (NPT2b) on intestinal phosphate absorption in mouse and rat models” (Pharmacology Research & Perspectives, 2022)

Columns and labels:
[1] = system: gastric emptying; experiment: Gastric emptying assay in mice; assay type: in vivo, mouse; details: doses up to 100 mg/kg API
Procedure: Male C57BL/6 mice, approximately 7–8 weeks old (18–21 g), were fasted overnight. Then, the mice were orally administered a single dose of vehicle (water) or varying doses of LY3358966 SDD dissolved in water. Fifteen minutes later, radiolabeled phosphate was given by oral gavage. Another 15 min later, the animals were sacrificed, and intact stomachs were collected and placed in 50‐ml conical tubes. Ten milliliter of 1 N NaOH was added to each tube and the stomachs were digested at 37°C overnight. Radioactivity in 100 µl digested stomach homogenate was quantitated by scintillation counting. The percent radiolabeled phosphate recovered in the stomach was calculated as the percentage of dpm recovered in the stomach versus the total dpm of radiolabeled phosphate administered.

[2] = Solubility at stomach pH; assay type: physicochemical; details: at the pH of the stomach

SMILES: CC1(C)CN(C(=O)NCCCCO)CCN1Cc1cccc(C(=O)Nc2sc3c(c2C(=O)Nc2cc(F)c(CCc4ccc(C(=O)O)cc4)c(F)c2)CCCC3)c1 [LY3358966, 4‐[2‐[2,6‐difluoro‐4‐[[2‐[[3‐[[4‐(4‐hydroxybutylcarbamoyl)‐2,2‐dimethyl‐piperazin‐1‐yl]methyl]benzoyl]amino]‐4,5,6,7‐tetrahydrobenzothiophene‐3‐carbonyl]amino]phenyl]ethyl]benzoic acid]
- effect on gastric emptying [1]: no effect on gastric emptying
- solubility [2]: minimal solubility
